The text below walks through data of BindingDB's records for doi:10.1021/jm058205b (Johnson & Johnson Pharmaceutical, 2005).

Each structure is given as a SMILES string.

Platelet-derived growth factor receptor beta, sequence (P09619 whole entry): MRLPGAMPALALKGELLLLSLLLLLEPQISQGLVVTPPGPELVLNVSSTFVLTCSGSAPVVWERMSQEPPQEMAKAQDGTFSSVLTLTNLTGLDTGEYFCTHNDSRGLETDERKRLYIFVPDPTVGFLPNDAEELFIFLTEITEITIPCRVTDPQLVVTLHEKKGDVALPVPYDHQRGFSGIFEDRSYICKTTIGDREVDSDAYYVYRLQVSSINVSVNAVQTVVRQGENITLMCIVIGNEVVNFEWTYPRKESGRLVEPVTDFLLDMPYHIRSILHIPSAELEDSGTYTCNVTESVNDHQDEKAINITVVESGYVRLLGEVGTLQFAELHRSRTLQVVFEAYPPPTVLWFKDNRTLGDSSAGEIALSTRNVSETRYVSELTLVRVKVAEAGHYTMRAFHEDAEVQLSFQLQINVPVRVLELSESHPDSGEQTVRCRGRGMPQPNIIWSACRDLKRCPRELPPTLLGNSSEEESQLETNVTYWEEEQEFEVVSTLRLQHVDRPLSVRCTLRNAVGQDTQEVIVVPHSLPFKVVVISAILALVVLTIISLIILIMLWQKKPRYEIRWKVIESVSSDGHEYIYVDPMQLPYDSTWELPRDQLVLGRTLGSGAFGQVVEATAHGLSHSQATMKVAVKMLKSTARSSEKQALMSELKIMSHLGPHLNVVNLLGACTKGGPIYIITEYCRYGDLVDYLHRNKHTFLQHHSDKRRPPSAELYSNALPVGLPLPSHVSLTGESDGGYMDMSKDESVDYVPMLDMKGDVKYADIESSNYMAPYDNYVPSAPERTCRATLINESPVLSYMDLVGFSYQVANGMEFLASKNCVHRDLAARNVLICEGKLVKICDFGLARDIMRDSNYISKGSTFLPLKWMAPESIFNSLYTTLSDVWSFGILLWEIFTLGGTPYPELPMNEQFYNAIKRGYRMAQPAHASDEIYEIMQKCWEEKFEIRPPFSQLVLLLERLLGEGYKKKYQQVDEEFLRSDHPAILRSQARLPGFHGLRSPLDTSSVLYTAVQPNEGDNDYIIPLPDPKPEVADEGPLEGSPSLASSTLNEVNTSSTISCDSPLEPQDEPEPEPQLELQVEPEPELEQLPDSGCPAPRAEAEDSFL

The first assay deals with Cyclin-dependent kinase/G2/mitotic-specific cyclin- 1 (Homo sapiens, UniProt P06493). In words: Kinase Inhibition Assay.
Cyclin-dependent kinase/G2/mitotic-specific cyclin- 1, sequence (P06493 whole entry): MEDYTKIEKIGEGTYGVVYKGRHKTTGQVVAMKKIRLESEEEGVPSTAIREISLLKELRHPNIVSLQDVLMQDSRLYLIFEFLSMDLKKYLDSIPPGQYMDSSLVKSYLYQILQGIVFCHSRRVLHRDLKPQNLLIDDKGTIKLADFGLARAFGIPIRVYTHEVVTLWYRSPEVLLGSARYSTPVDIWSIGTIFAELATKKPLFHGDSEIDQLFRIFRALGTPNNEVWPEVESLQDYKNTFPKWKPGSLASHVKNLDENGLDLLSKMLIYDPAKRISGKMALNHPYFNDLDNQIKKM
Cyclin-dependent kinase/G2/mitotic-specific cyclin- 1, sequence (P14635 whole entry, further chain): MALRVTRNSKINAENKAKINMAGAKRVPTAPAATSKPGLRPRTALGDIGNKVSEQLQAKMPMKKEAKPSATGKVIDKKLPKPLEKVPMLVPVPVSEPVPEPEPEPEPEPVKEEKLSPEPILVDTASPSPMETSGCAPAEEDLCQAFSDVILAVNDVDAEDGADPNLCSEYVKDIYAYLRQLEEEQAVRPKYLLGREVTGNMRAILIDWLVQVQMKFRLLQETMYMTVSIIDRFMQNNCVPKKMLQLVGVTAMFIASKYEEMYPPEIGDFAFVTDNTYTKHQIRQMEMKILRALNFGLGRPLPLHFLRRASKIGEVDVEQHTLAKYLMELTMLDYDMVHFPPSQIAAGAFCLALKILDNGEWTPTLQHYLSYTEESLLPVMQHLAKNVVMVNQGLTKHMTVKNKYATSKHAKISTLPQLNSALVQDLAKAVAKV
Settings: not given
As for the experimental part: (§1) The enzyme was assayed with a biotinylated peptide substrate and test compounds in the presence of 5 uM ATP/[gamma-33P]ATP in a streptavidin coated FlashPlate (Perkin-Elmer, Boston, MA). Inhibition of the enzymatic activity due to the compound was measured by observing a reduced amount of 33P-gamma-ATP incorporated into the immobilized peptide relative to untreated controls. Linear regression analysis of the percent of inhibition by the test compound was used to calculate IC50 values.
As to `O=C(CO)Nc1cncc(-c2cncc(Nc3cccc(Cl)c3)n2)c1` [N-{5-[6-(3-Chloro-phenylamino)-pyrazin-2-yl]-pyridin-3-yl}-2-hydroxy-acetamide], the IC50 (in general, the concentration that inhibits the measured activity by half) is greater than 10 µM.

Take `O=C(NCCCO)c1cncc(-c2cncc(Nc3cccc(Cl)c3)n2)c1` [5-[6-(3-Chloro-phenylamino)-pyrazin-2-yl]-N-(3-hydroxy-propyl)-nicotinamide]: the IC50 is greater than 10 µM.

The compound `O=C(COc1ccccc1)Nc1cncc(-c2cncc(Nc3cccc(Cl)c3)n2)c1` [N-{5-[6-(3-Chloro-phenylamino)-pyrazin-2-yl]-pyridin-3-yl}-2-phenoxy-acetamide] had an IC50 greater than 10 µM.

The compound `CN(C)CCNc1cncc(-c2cncc(Nc3cccc(Cl)c3)n2)c1` [N-{5-[6-(3-Chloro-phenylamino)-pyrazin-2-yl]-pyridin-3-yl}-N ,N -dimethyl-ethane-1,2-diamine] registered an IC50 greater than 10 µM.

Take `CN1CCN(CCCNc2cncc(-c3cncc(Nc4cccc(Cl)c4)n3)c2)CC1` [N-(3-chlorophenyl)-6-(5-{[3-(4-methylpiperazin-1-yl)propyl]amino}pyridin-3-yl)pyrazin-2-amine]: the IC50 was greater than 10 µM.

Compound `Clc1cccc(Nc2cncc(-c3cncc(NCCCN4CCOCC4)c3)n2)c1` [N-[5-[6-[(3-Chlorophenyl)amino]pyrazinyl]-3-pyridinyl]-4-morpholinepropanamine] displayed an IC50 greater than 10 µM.

In the case of `Clc1cccc(Nc2cncc(-c3cncc(NCCCn4cncn4)c3)n2)c1` [N-(3-chlorophenyl)-6-(5-{[3-(1H-1,2,4-triazol-1-yl)propyl]amino}pyridin-3-yl)pyrazin-2-amine], the IC50 is greater than 10 µM.

For `Clc1cccc(Nc2cncc(-c3cncc(NCC4CCOCC4)c3)n2)c1` [N-(3-chlorophenyl)-6-{5-[(oxan-4-ylmethyl)amino]pyridin-3-yl}pyrazin-2-amine], the IC50 is greater than 10 µM.

With `Clc1cccc(Nc2cncc(-c3cncc(NCCOc4ccccc4)c3)n2)c1` [(3-Chloro-phenyl)-{6-[5-(2-phenoxy-ethylamino)-pyridin-3-yl]-pyrazin-2-yl}-amine], the IC50 was greater than 10 µM.

As to `OCCCNc1cncc(-c2cncc(Nc3cccc(Cl)c3)n2)c1` [3-[[5-[6-[(3-chlorophenyl)amino]pyrazinyl]-3-pyridinyl]amino]-1-propanol], the IC50 is greater than 10 µM.

Turning to `O=C(CCCNc1cncc(-c2cncc(Nc3cccc(Cl)c3)n2)c1)N1CCCCC1` [4-[(5-{6-[(3-chlorophenyl)amino]pyrazin-2-yl}pyridin-3-yl)amino]-1-(piperidin-1-yl)butan-1-one], the IC50 was greater than 10 µM.

The compound `Nc1ncc(NCCCO)cc1-c1cncc(Nc2cccc(Cl)c2)n1` [3-[(6-amino-5-{6-[(3-chlorophenyl)amino]pyrazin-2-yl}pyridin-3-yl)amino]propan-1-ol] showed an IC50 greater than 10 µM.

With `OCCNc1cncc(-c2cncc(Nc3cccc(Cl)c3)n2)c1` [2-{5-[6-(3-Chloro-phenylamino)-pyrazin-2-yl]-pyridin-3-ylamino}-ethanol], the IC50 is greater than 10 µM.

`COCCC(=O)Nc1cncc(-c2cncc(Nc3cccc(Cl)c3)n2)c1` [N-(5-{6-[(3-chlorophenyl)amino]pyrazin-2-yl}pyridin-3-yl)-3-methoxypropanamide]: the IC50 was greater than 10 µM.

In turn, `OCCCNc1cnc(Cl)c(-c2cncc(Nc3cccc(Cl)c3)n2)c1` [3-[(6-chloro-5-{6-[(3-chlorophenyl)amino]pyrazin-2-yl}pyridin-3-yl)amino]propan-1-ol] yielded an IC50 greater than 10 µM.

Consider `CN(C)c1ccc(C(=O)Nc2cncc(-c3cncc(Nc4cccc(Cl)c4)n3)c2)cc1` [N-(5-{6-[(3-chlorophenyl)amino]pyrazin-2-yl}pyridin-3-yl)-4-(dimethylamino)benzamide], for which the IC50 was greater than 10 µM.

`O=C(COCc1ccccc1)Nc1cncc(-c2cncc(Nc3cccc(Cl)c3)n2)c1` [N-{5-[6-(3-Chloro-phenylamino)-pyrazin-2-yl]-pyridin-3-yl}-2-benzyloxy-acetamide] gave an IC50 greater than 10 µM.

Consider `CN(C)CCCNc1cncc(-c2cncc(Nc3cccc(Cl)c3)n2)c1` [N-(3-chlorophenyl)-6-(5-{[3-(dimethylamino)propyl]amino}pyridin-3-yl)pyrazin-2-amine], for which the concentration for half-maximal inhibition (IC50) was greater than 10 µM.

Take `Clc1cccc(Nc2cncc(-c3cncc(NCCCc4ccccc4)c3)n2)c1` [N-(3-chlorophenyl)-6-{5-[(3-phenylpropyl)amino]pyridin-3-yl}pyrazin-2-amine]: the IC50 was greater than 10 µM.

On to `Clc1cccc(Nc2cncc(-c3cncc(NCCCn4cccn4)c3)n2)c1` [N-(3-Chlorophenyl)-6-[5-[[3-(1H-pyrazol-1-yl)propyl]-amino]-3-pyridinyl]-2-pyrazinamine], for which the IC50 was greater than 10 µM.

With `OCCCCNc1cncc(-c2cncc(Nc3cccc(Cl)c3)n2)c1` [4-[(5-{6-[(3-chlorophenyl)amino]pyrazin-2-yl}pyridin-3-yl)amino]butan-1-ol], the IC50 was greater than 10 µM.

The compound `OCCCNc1cnc(F)c(-c2cncc(Nc3cccc(Cl)c3)n2)c1` [3-{5-[6-(3-Chloro-phenylamino)-pyrazin-2-yl]-6-fluoropyridin-3-ylamino}-propan-1-ol] returned an IC50 greater than 10 µM.

In the case of `COCC(=O)Nc1cncc(-c2cncc(Nc3cccc(Cl)c3)n2)c1` [N-{5-[6-(3-Chloro-phenylamino)-pyrazin-2-yl]-pyridin-3-yl}-2-methoxy-acetamide], the IC50 was greater than 10 µM.

The same assay, now with this note: pH 8; 30 °C.
In turn, `Nc1cncc(-c2cncc(Nc3cccc(Cl)c3)n2)c1` [[6-(5-Amino-pyridin-3-yl)-pyrazin-2-yl]-(3-chloro-phenyl)-amine] yielded an IC50 greater than 10 µM.

Consider `Clc1ccc(Nc2cncc(-c3cncc(NCCCc4ccncc4)c3)n2)cc1Cl` [N-(3,4-dichlorophenyl)-6-(5-{[3-(pyridin-4-yl)propyl]amino}pyridin-3-yl)pyrazin-2-amine], for which the half-inhibitory concentration (IC50) is greater than 10 µM.

Regarding `Clc1ccc(Nc2cncc(-c3cncc(NCCCc4ccncc4)c3)n2)cc1` [(4-Chloro-phenyl)-{6-[5-(3-pyridin-4-yl-propylamino)pyridin-3-yl]-pyrazin-2-yl}-amine], the IC50 was greater than 10 µM.

For the compound `OCCCNc1cncc(-c2cncc(Oc3cccc(Cl)c3)n2)c1` [3-({5-[6-(3-chlorophenoxy)pyrazin-2-yl]pyridin-3-yl}amino)propan-1-ol], the IC50 was greater than 10 µM.

`COc1cccc(Nc2cncc(-c3cncc(NCCCO)c3)n2)c1` [3-[[5-[6-[(3-Methoxyphenyl)amino]pyrazinyl]-3-pyridinyl]-1-propanol] came in with an IC50 greater than 10 µM.

Take `OCCCNc1cncc(-c2cncc(Nc3cccc(F)c3)n2)c1` [3-[(5-{6-[(3-fluorophenyl)amino]pyrazin-2-yl}pyridin-3-yl)amino]propan-1-ol]: the IC50 was greater than 10 µM.

In the case of `OCCCNc1cncc(-c2cncc(NCc3ccccc3)n2)c1` [3-[5-(6-Benzylamino-pyrazin-2-yl)-pyridin-3-yl-amino]-propan-1-ol], the IC50 is greater than 10 µM.

As to `Clc1cccc(Nc2cncc(-c3cncc(NCCCc4ccncc4)c3)n2)c1` [N-(3-chlorophenyl)-6-(5-{[3-(pyridin-4-yl)propyl]amino}pyridin-3-yl)pyrazin-2-amine], the IC50 was greater than 10 µM.

Take `OCCCNc1cncc(-c2cncc(Nc3ccccc3Cl)n2)c1` [3-{5-[6-(2-Chloro-phenylamino)-pyrazin-2-yl]-pyridin-3-ylamino}-propan-1-ol]: the IC50 was greater than 10 µM.

In the next assay the target is T1, Glycogen synthase kinase-3 beta [7-25] (Oryctolagus cuniculus, UniProt G1T8E2).
T1 construct: 7-25
In words: Kinase Inhibition Assay.
Settings: not given
As for the experimental part:
as §1
For the compound `CN(C)CCNc1cncc(-c2cncc(Nc3cccc(Cl)c3)n2)c1` [N-{5-[6-(3-Chloro-phenylamino)-pyrazin-2-yl]-pyridin-3-yl}-N ,N -dimethyl-ethane-1,2-diamine], the IC50 was greater than 10 µM.

A further assay has as its target Platelet-derived growth factor receptor beta (Homo sapiens, UniProt P09619). In words: Kinase Inhibition Assay.
Settings: not given
As for the experimental part: as §1
Consider `CN(C)CCNc1cncc(-c2cncc(Nc3cccc(Cl)c3)n2)c1` [N-{5-[6-(3-Chloro-phenylamino)-pyrazin-2-yl]-pyridin-3-yl}-N ,N -dimethyl-ethane-1,2-diamine], for which the IC50 is greater than 10 µM.

The target of another assay is Vascular endothelial growth factor receptor 2 (Rattus norvegicus, UniProt O08775). In words: Kinase Inhibition Assay.
Vascular endothelial growth factor receptor 2, sequence (O08775 whole entry): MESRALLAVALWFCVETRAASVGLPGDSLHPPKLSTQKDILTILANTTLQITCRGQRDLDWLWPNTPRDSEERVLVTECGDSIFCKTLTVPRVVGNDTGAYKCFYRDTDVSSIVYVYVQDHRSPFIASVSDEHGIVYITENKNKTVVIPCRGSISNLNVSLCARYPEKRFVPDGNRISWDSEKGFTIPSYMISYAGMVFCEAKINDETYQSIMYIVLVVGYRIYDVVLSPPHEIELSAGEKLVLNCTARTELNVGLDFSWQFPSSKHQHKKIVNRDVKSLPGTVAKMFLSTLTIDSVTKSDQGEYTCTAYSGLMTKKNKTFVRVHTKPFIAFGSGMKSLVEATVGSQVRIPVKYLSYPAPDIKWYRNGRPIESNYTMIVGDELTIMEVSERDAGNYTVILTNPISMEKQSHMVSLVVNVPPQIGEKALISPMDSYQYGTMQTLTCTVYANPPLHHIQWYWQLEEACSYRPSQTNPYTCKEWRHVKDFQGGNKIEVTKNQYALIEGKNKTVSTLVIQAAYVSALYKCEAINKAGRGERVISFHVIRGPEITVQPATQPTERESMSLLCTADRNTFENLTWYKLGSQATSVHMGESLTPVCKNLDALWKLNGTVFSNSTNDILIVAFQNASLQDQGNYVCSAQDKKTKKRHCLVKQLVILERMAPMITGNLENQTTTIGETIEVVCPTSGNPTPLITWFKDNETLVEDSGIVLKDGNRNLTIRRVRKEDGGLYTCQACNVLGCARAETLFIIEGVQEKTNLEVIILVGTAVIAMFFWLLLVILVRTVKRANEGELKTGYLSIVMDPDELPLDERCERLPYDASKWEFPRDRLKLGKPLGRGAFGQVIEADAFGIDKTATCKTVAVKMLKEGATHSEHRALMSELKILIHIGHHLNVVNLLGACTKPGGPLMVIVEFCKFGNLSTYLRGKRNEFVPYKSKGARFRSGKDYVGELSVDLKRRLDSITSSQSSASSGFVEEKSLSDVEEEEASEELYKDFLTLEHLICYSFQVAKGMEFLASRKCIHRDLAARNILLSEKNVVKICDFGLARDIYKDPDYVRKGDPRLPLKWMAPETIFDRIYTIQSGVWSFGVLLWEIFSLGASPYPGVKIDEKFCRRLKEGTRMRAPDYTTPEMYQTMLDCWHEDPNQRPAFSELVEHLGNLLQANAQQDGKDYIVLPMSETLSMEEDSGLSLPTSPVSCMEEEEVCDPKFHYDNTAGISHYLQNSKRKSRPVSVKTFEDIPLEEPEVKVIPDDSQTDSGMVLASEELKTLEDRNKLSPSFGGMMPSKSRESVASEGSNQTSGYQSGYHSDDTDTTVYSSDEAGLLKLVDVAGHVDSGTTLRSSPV
Settings: not given
Here is the method:
as §1
Regarding `CN(C)c1ccc(C(=O)Nc2cncc(-c3cncc(Nc4cccc(Cl)c4)n3)c2)cc1` [N-(5-{6-[(3-chlorophenyl)amino]pyrazin-2-yl}pyridin-3-yl)-4-(dimethylamino)benzamide], the IC50 is greater than 10 µM.
